# Bridge positions count the residues as written; N and C are the ends. Square brackets hold non-standard residues; d marks the D form. Peptide text beside a SMILES is read from it. * marks the point of attachment. ξ: configuration not given here. Phe(4-CONH2) = NC(=O)c1ccc(C[C@H](N)C(=O)O)cc1; Phe(4-COOH) = N[C@@H](Cc1ccc(C(=O)O)cc1)C(=O)O; Bip = N[C@@H](Cc1ccc(-c2ccccc2)cc1)C(=O)O; Phe(3-CN) = N#Cc1cccc(C[C@H](N)C(=O)O)c1; Phe(4-CN) = N#Cc1ccc(C[C@H](N)C(=O)O)cc1; Phe(3-Me) = Cc1cccc(C[C@H](N)C(=O)O)c1; Bta = N[C@@H](Cc1csc2ccccc12)C(=O)O; 4Pal = N[C@@H](Cc1ccncc1)C(=O)O; Cha = N[C@@H](CC1CCCCC1)C(=O)O; Cit = NC(=O)NCCC[C@H](N)C(=O)O; Ile(3ξ) = CCC(C)[C@H](N)C(=O)O; Carboxymethyl = O=C(O)C*; NMeA = CN[C@@H](C)C(=O)O; Dab = NCC[C@H](N)C(=O)O; Dap = NC[C@H](N)C(=O)O; Bn = c1ccc(C*)cc1
# Molecular target: T1, PE-labeled human PD-L1-Ig binding to Jurkat cell line over-expressing human PD-1 (Jurkat-PD-1) (Homo sapiens, UniProt Q15116)
# T1 construct: expressed in transfected cells; host or cells: Jurkat
# T1 sequence (Q15116 25-288): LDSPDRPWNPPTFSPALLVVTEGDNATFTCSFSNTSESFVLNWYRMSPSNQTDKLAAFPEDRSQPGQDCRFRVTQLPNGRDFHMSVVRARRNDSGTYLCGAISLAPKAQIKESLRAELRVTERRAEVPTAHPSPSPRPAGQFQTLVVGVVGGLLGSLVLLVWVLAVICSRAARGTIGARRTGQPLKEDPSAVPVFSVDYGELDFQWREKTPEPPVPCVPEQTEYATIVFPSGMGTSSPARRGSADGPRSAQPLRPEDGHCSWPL
# Assay: Jurkat-PD-1 Cell Binding High-Content Screening Assay (CBA): Method 1
# Settings: Jurkat HPDL1 PD1 IC50 (uM) (Method 1)
row,Compound,IC50
1,CCC(C)[C@@H]1NC(=O)[C@H](Cc2ccc(-c3ccccc3)cc2)NC(=O)[C@H](C(C)C)NC(=O)[C@H](Cc2cccc(C)c2)NC(=O)[C@H](CC(=O)O)NC(=O)[C@H](Cc2cccc(C)c2)NC(=O)[C@H](Cc2ccncc2)NC(=O)CSC[C@@H](C(=O)N[C@@H](CO)C(=O)O)NC(=O)[C@H](CO)NC(=O)[C@H](C(C)C)NC(=O)[C@H](CC2CCCCC2)NC(=O)[C@H](CCN)NC(=O)[C@@H](CC(C)C)NC(=O)[C@H](C)N(C)C1=O (stereo partly drawn) [Compound 2233] ({CH2CO}-[4Pal][Phe(3-Me)]D[Phe(3-Me)]V[Bip][Ile(3ξ)][NMeA][dL][Dab][Cha]VSCS-OH; thioether N-14),0.02 µM

# Same assay, conditions: Jurkat HPDL1 PD1 IC50 (uM) (Method 1), Jurkat-hPD-1 cells, PE-labeled PD-L1-Ig 20 nM final
row,Compound,IC50
1,Cc1cccc(C[C@@H]2NC(=O)[C@H](CC(=O)O)NC(=O)[C@H](Cc3ccc(OCC(=O)O)cc3)NC(=O)[C@H](CN)NC(=O)CSC[C@@H](C(=O)N[C@@H](C)C(N)=O)NC(=O)[C@H](CO)NC(=O)[C@H](Cc3ccccc3)NC(=O)[C@H](CC(C)C)NC(=O)[C@H](CC(N)=O)NC(=O)[C@@H](CC(C)C)NC(=O)[C@H](C)N(C)C(=O)[C@H](Cc3ccccc3)NC(=O)[C@H](Cc3ccc(-c4ccccc4)cc3)NC(=O)[C@H](CC(C)C)NC2=O)c1 [Compound 1586] ({CH2CO}-[Dap]Y(Carboxymethyl)D[Phe(3-Me)]L[Bip]F[NMeA][dL]NLFSCA-NH2; thioether N-14),0.54 µM
2,CC(C)C[C@@H]1NC(=O)[C@H](Cc2c[nH]c3ccccc23)NC(=O)[C@H](CC(=O)O)NC(=O)[C@H](Cc2ccc(OCC(=O)O)cc2)NC(=O)[C@H](Cc2ccccc2)NC(=O)CSC[C@@H](C(=O)N[C@@H](C)C(N)=O)NC(=O)[C@H](CO)NC(=O)[C@H](C(C)C)NC(=O)[C@H](CC(C)C)NC(=O)[C@H](CC(N)=O)NC(=O)[C@@H](CC(C)C)NC(=O)[C@H](C)N(C)C(=O)[C@H](C(C)C)NC(=O)[C@H](Cc2ccc(OCc3ccccc3)cc2)NC1=O [Compound 2028] ({CH2CO}-FY(Carboxymethyl)DWLY(Bn)V[NMeA][dL]NLVSCA-NH2; thioether N-14),0.48 µM

# Same assay, conditions: Jurkat-hPD-1 cells, PE-labeled PD-L1-Ig 20 nM final; read-out: Jurkat HPDL1 PD1 IC50 (uM) (Method 1)
row,Compound,IC50
1,Cc1cccc(C[C@@H]2NC(=O)[C@H](CC(=O)O)NC(=O)[C@H](Cc3ccc(OCC(=O)O)cc3)NC(=O)[C@H]([C@@H](C)O)NC(=O)CSC[C@@H](C(N)=O)NC(=O)[C@H](CC(=O)O)NC(=O)[C@H](C(C)C)NC(=O)[C@H](CC3CCCCC3)NC(=O)[C@H](CCN)NC(=O)[C@@H](CC(C)C)NC(=O)[C@H](C)N(C)C(=O)[C@H](Cc3ccc(OCC(=O)O)cc3)NC(=O)[C@H](Cc3ccc(-c4ccccc4)cc3)NC(=O)[C@H](Cc3ccc(OCC(=O)O)cc3)NC2=O)c1 [Compound 1670] ({CH2CO}-TY(Carboxymethyl)D[Phe(3-Me)]Y(Carboxymethyl)[Bip]Y(Carboxymethyl)[NMeA][dL][Dab][Cha]VDC-NH2; thioether N-14),0.08 µM
2,CC(C)C[C@@H]1NC(=O)[C@H](CCCNC(=N)N)NC(=O)[C@H](Cc2csc3ccccc23)NC(=O)[C@H](C)N(C)C(=O)[C@H](CCCNC(=N)N)NC(=O)[C@H](Cc2ccc(-c3ccccc3)cc2)NC(=O)[C@H](C(C)C)NC(=O)[C@H](Cc2c[nH]c3ccccc23)NC(=O)[C@H](CC(=O)O)NC(=O)[C@H](Cc2ccc(O)cc2)NC(=O)[C@H](CCC(N)=O)NC(=O)CSC[C@@H](C(=O)N[C@@H](C)C(N)=O)NC(=O)[C@H](CO)NC(=O)[C@H](C(C)C)NC1=O [Compound 1057] ({CH2CO}-QYDWV[Bip]R[NMeA][Bta]RLVSCA-NH2; thioether N-14),0.18 µM
3,CC(C)C[C@@H]1NC(=O)[C@H](CCCNC(=N)N)NC(=O)[C@@H](CC(C)C)NC(=O)[C@H](C)N(C)C(=O)[C@H](CCCNC(=N)N)NC(=O)[C@H](Cc2ccc(-c3ccccc3)cc2)NC(=O)[C@H](C(C)C)NC(=O)[C@H](Cc2cccc(C#N)c2)NC(=O)[C@H](CC(=O)O)NC(=O)[C@H](Cc2ccc(O)cc2)NC(=O)[C@H](CC(N)=O)NC(=O)CSC[C@@H](C(=O)N[C@@H](C)C(N)=O)NC(=O)[C@H]([C@@H](C)O)NC(=O)[C@H](C(C)C)NC1=O [Compound 1196] ({CH2CO}-NYD[Phe(3-CN)]V[Bip]R[NMeA][dL]RLVTCA-NH2; thioether N-14),0.24 µM
4,CC(C)C[C@@H]1NC(=O)[C@H](CCN)NC(=O)[C@@H](CC(C)C)NC(=O)[C@H](C)N(C)C(=O)[C@H](CCCNC(N)=O)NC(=O)[C@H](Cc2ccc(-c3ccccc3)cc2)NC(=O)[C@H](C(C)C)NC(=O)[C@H](Cc2c[nH]c3ccccc23)NC(=O)[C@H](CC(=O)O)NC(=O)[C@H](Cc2ccc(O)cc2)NC(=O)[C@H](CC(N)=O)NC(=O)CSC[C@@H](C(=O)N[C@@H](CCC(=O)O)C(N)=O)NC(=O)[C@H](CO)NC(=O)[C@H](C(C)C)NC1=O [Compound 1233] ({CH2CO}-NYDWV[Bip][Cit][NMeA][dL][Dab]LVSCE-NH2; thioether N-14),0.05 µM

# Continued, values first:
row,IC50,Compound
1,0.05 µM,CC(C)C[C@@H]1NC(=O)[C@H](CCN)NC(=O)[C@@H](CC(C)C)NC(=O)[C@H](C)N(C)C(=O)[C@H](CCCNC(N)=O)NC(=O)[C@H](Cc2ccc(-c3ccccc3)cc2)NC(=O)[C@H](C(C)C)NC(=O)[C@H](Cc2c[nH]c3ccccc23)NC(=O)[C@H](CC(=O)O)NC(=O)[C@H](Cc2ccc(C#N)cc2)NC(=O)[C@H](CC(N)=O)NC(=O)CSC[C@@H](C(=O)N[C@@H](C)C(N)=O)NC(=O)[C@H]([C@@H](C)O)NC(=O)[C@H](C(C)C)NC1=O [Compound 1312] ({CH2CO}-N[Phe(4-CN)]DWV[Bip][Cit][NMeA][dL][Dab]LVTCA-NH2; thioether N-14)
2,0.04 µM,CC(C)C[C@@H]1NC(=O)[C@H](CCCNC(=N)N)NC(=O)[C@@H](CC(C)C)NC(=O)[C@H](C)N(C)C(=O)[C@H](CCCNC(N)=O)NC(=O)[C@H](Cc2ccc(-c3ccccc3)cc2)NC(=O)[C@H](C(C)C)NC(=O)[C@H](Cc2c[nH]c3ccccc23)NC(=O)[C@H](CC(=O)O)NC(=O)[C@H](Cc2ccc(O)cc2)NC(=O)[C@H](CC(N)=O)NC(=O)CSC[C@@H](C(=O)N[C@@H](C)C(N)=O)NC(=O)[C@H](CO)NC(=O)[C@H](C(C)C)NC1=O [Compound 1227] ({CH2CO}-NYDWV[Bip][Cit][NMeA][dL]RLVSCA-NH2; thioether N-14)
3,0.02 µM,Cc1cccc(C[C@@H]2NC(=O)[C@H](CC(=O)O)NC(=O)[C@H](Cc3ccc(C(=O)O)cc3)NC(=O)[C@H](Cc3ccc(OCC(=O)O)cc3)NC(=O)CSC[C@@H](C(=O)N[C@@H](C)C(N)=O)NC(=O)[C@H]([C@@H](C)O)NC(=O)[C@H](C(C)C)NC(=O)[C@H](CC(C)C)NC(=O)[C@H](CCN)NC(=O)[C@@H](CC(C)C)NC(=O)[C@H](C)N(C)C(=O)[C@H](CCCNC(N)=O)NC(=O)[C@H](Cc3ccc(-c4ccccc4)cc3)NC(=O)[C@H](C(C)C)NC2=O)c1 [Compound 1574] ({CH2CO}-Y(Carboxymethyl)[Phe(4-COOH)]D[Phe(3-Me)]V[Bip][Cit][NMeA][dL][Dab]LVTCA-NH2; thioether N-14)
4,0.01 µM,CC(C)C[C@@H]1NC(=O)[C@H](Cc2c[nH]c3ccccc23)NC(=O)[C@H](CC(=O)O)NC(=O)[C@H](Cc2ccc(C(=O)O)cc2)NC(=O)[C@H](Cc2ccc(OCC(=O)O)cc2)NC(=O)CSC[C@@H](C(=O)N[C@@H](CCN)C(N)=O)NC(=O)[C@H](CO)NC(=O)[C@H](C(C)C)NC(=O)[C@H](CC2CCCCC2)NC(=O)[C@H](CCN)NC(=O)[C@@H](CC(C)C)NC(=O)[C@H](C)N(C)C(=O)[C@H](C(C)C)NC(=O)[C@H](Cc2ccc(-c3ccccc3)cc2)NC1=O [Compound 1909] ({CH2CO}-Y(Carboxymethyl)[Phe(4-COOH)]DWL[Bip]V[NMeA][dL][Dab][Cha]VSC[Dab]-NH2; thioether N-14)
5,0.01 µM,CCC(C)[C@@H]1NC(=O)[C@H](Cc2ccc(-c3ccccc3)cc2)NC(=O)[C@H](CC(C)C)NC(=O)[C@H](Cc2c[nH]c3ccccc23)NC(=O)[C@H](CC(=O)O)NC(=O)[C@H](Cc2ccc(C(=O)O)cc2)NC(=O)[C@H](Cc2ccc(OCC(=O)O)cc2)NC(=O)CSC[C@@H](C(=O)N[C@@H](CC(N)=O)C(N)=O)NC(=O)[C@H](CCC(=O)O)NC(=O)[C@H](C(C)C)NC(=O)[C@H](CC2CCCCC2)NC(=O)[C@H](CCN)NC(=O)[C@@H](CC(C)C)NC(=O)[C@H](C)N(C)C1=O (stereo partly drawn) [Compound 1921] ({CH2CO}-Y(Carboxymethyl)[Phe(4-COOH)]DWL[Bip][Ile(3ξ)][NMeA][dL][Dab][Cha]VECN-NH2; thioether N-14)
6,0.01 µM,CCNC(=O)[C@H](CCN)NC(=O)[C@@H]1CSCC(=O)N[C@@H](Cc2ccc(C(N)=O)cc2)C(=O)N[C@@H](Cc2ccc(OCC(=O)O)cc2)C(=O)N[C@@H](CC(=O)O)C(=O)N[C@@H](Cc2cccc(C)c2)C(=O)N[C@@H](Cc2ccc(OCC(=O)O)cc2)C(=O)N[C@@H](Cc2ccc(-c3ccccc3)cc2)C(=O)N[C@@H](Cc2ccc(OCC(=O)O)cc2)C(=O)N(C)[C@@H](C)C(=O)N[C@H](CC(C)C)C(=O)N[C@@H](CCN)C(=O)N[C@@H](CC2CCCCC2)C(=O)N[C@@H](C(C)C)C(=O)N[C@@H]([C@@H](C)O)C(=O)N1 [Compound 1857] ({CH2CO}-[Phe(4-CONH2)]Y(Carboxymethyl)D[Phe(3-Me)]Y(Carboxymethyl)[Bip]Y(Carboxymethyl)[NMeA][dL][Dab][Cha]VTC[Dab]-NHEt; thioether N-14)
7,0.01 µM,CC(C)C[C@@H]1NC(=O)[C@H](Cc2c[nH]c3ccccc23)NC(=O)[C@H](CC(=O)O)NC(=O)[C@H](Cc2ccc(O)cc2)NC(=O)[C@H](Cc2ccncc2)NC(=O)CSC[C@@H](C(=O)N[C@@H](C)C(N)=O)NC(=O)[C@H](CO)NC(=O)[C@H](C(C)C)NC(=O)[C@H](CC(C)C)NC(=O)[C@H](CC(N)=O)NC(=O)[C@@H](C)NC(=O)[C@H](C)N(C)C(=O)[C@H](C(C)C)NC(=O)[C@H](Cc2ccc(-c3ccccc3)cc2)NC1=O [Compound 1730] ({CH2CO}-[4Pal]YDWL[Bip]V[NMeA][dA]NLVSCA-NH2; thioether N-14)
